Experimental data as given in patent US20060069132A1, “Azolecarboxamide herbicides” (priority 2004, published 2006).

Columns and labels:
winter barley = experiment: Test C postemergence herbicide test; assay type: in vivo, Hordeum vulgare; conditions: for Barley, Winter plant response rating: 500 g ai/ha
Method: (§1) At the same time, plants selected from these crop and weed species and also winter barley (Hordeum vulgare L.), blackgrass (Alopecurus myosuroides Huds.), canarygrass (Phalaris minor Retz.), chickweed (Stellaria media (L.) Vill.), downy bromegrass (Bromus tectorum L.), green foxtail (Setaria viridis (L.) Beauv.), Italian ryegrass (Lolium multiflorum Lam.), wheat (Triticum aestivum L.), wild oat (Avenafatua L.) and windgrass (Apera spica-venti (L.) Beauv.) were treated with postemergence applications of some of the test chemicals formulated in the same manner. Plants ranged in height from 2 to 18 cm (1- to 4-leaf stage) for postemergence treatments. Plant species in the flooded paddy test consisted of rice (Oryza sativa), smallflower umbrella sedge (Cyperus difformis L.), ducksalad (Heteranthera limosa (Sw.) Willd.) and barnyardgrass (Echinochloa crus-galli (L.) Beauv.) grown to the 2-leaf stage for testing. Treated plants and controls were maintained in a greenhouse for 12 to 14 days, after which time all species were compared to controls and visually evaluated. Plant response ratings, summarized in Table C, are based on a scale of 0 to 100 where 0 is no effect and 100 is complete control. A dash (-) response means no test result.

canarygrass = experiment: Test C postemergence herbicide test; assay type: in vivo, Phalaris minor
Method: as §1

downy bromegrass [1] = experiment: Test C postemergence herbicide test; assay type: in vivo, Bromus tectorum
Method: as §1

green foxtail = experiment: Test C postemergence herbicide test; assay type: in vivo, Setaria viridis
Method: as §1

wild oat = experiment: Test C postemergence herbicide test; assay type: in vivo, Avenafatua
Method: as §1

large crabgrass = experiment: Test E pre-/postemergence herbicide test; assay type: in vivo, Digitaria sanguinalis; conditions: Preemergence
Outline: (§2)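 Ratings from 0 (no effect) to 100 (complete control) were assigned by visual comparison with untreated plants 12 to 14 days after application. Test chemicals, formulated with surfactant in a non-phytotoxic solvent blend, were applied to soil after planting or to foliage of 2–18 cm plants.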

goosegrass = experiment: Test E pre-/postemergence herbicide test; assay type: in vivo, Eleusine indica; conditions: Preemergence
Outline: as §2

pitted morningglory = experiment: Test E pre-/postemergence herbicide test; assay type: in vivo, Ipomoea lacunosa; conditions: Preemergence
Outline: as §2

dallisgrass = experiment: Test E pre-/postemergence herbicide test; assay type: in vivo, Paspalum dilatatum; conditions: Preemergence
Outline: as §2

prickly sida = experiment: Test E pre-/postemergence herbicide test; assay type: in vivo, Sida spinosa; conditions: Preemergence
Outline: as §2

annual bluegrass = experiment: Test E pre-/postemergence herbicide test; assay type: in vivo, Poa annua; conditions: Preemergence
Outline: as §2

downy bromegrass [2] = experiment: Test E pre-/postemergence herbicide test; assay type: in vivo, Bromus tectorum; conditions: Preemergence
Outline: as §2

itchgrass = experiment: Test E pre-/postemergence herbicide test; assay type: in vivo, Rottboellia cochinchinensis; conditions: Preemergence
Outline: as §2

common mallow = experiment: Test E pre-/postemergence herbicide test; assay type: in vivo, Malva sylvestris; conditions: Preemergence
Outline: as §2

[3] = Postemergence, 125 g ai/ha, scale 0 to 100, 0 no effect, 100 complete control
[4] = Postemergence, 250 g ai/ha, scale 0 to 100, 0 no effect, 100 complete control
[5] = postemergence, 62 g ai/ha, scale 0 to 100 (0 no effect, 100 complete control)
[6] = Postemergence, 500 g ai/ha, scale 0 to 100
[7] = postemergence, 125 g ai/ha, scale 0 to 100
[8] = postemergence, 62 g ai/ha, scale 0 to 100
[9] = postemergence, 31 g ai/ha, scale 0 to 100
[10] = Postemergence, 500 g ai/ha, scale 0 to 100, 0 no effect, 100 complete control
[11] = 250 g ai/ha, scale 0 (no effect) to 100 (complete control)
[12] = 500 g ai/ha, scale 0 (no effect) to 100 (complete control)

## CCn1nc(C(C)(C)C)cc1C(=O)Nc1cccc(OC(F)F)c1 [Compound 332]
Winter barley; Postemergence, scale 0 to 100
  Barley, Winter plant response rating: 40
Winter barley; [3]
  Plant response rating, Barley, Winter: 35
Winter barley; [4]
  Plant response rating, Barley, Winter: 40
Winter barley; [5]
  Plant response rating, Barley, Winter: 35
canarygrass; [6]
  Canarygrass plant response rating: 70
canarygrass; [4]
  Plant response rating, Canarygrass: 60
canarygrass; [7]
  Plant response rating, Canarygrass: 45
canarygrass; [8]
  Plant response rating, Canarygrass: 35
Downy bromegrass [1]; [6]
  Bromegrass, Downy plant response rating: 65
Downy bromegrass [1]; [4]
  Plant response rating, Bromegrass, Downy: 50
Downy bromegrass [1]; [7]
  Plant response rating, Bromegrass, Downy: 40
Downy bromegrass [1]; [8]
  Plant response rating, Bromegrass, Downy: 35
Green foxtail; [6]
  Foxtail, Green plant response rating: 70
Green foxtail; [4]
  Plant response rating, Foxtail, Green: 50
Green foxtail; [7]
  Plant response rating, Foxtail, Green: 40
Green foxtail; [8]
  Plant response rating, Foxtail, Green: 35
Wild oat; [6]
  Oat, Wild plant response rating: 70
Wild oat; [4]
  Plant response rating, Oat, Wild: 70
Wild oat; [7]
  Plant response rating, Oat, Wild: 65
Wild oat; [8]
  Plant response rating, Oat, Wild: 50

## CCn1nc(C(C)(C)C)cc1C(=O)Nc1cc(C(=S)N(C)C)ccn1 [Compound 334]
Winter barley; [3]
  Plant response rating, Barley, Winter: 30
Winter barley; [4]
  Plant response rating, Barley, Winter: 30
Winter barley; [9]
  Plant response rating, Barley, Winter: 20
Winter barley; [5]
  Plant response rating, Barley, Winter: 20
canarygrass; [4]
  Plant response rating, Canarygrass: 45
canarygrass; [7]
  Plant response rating, Canarygrass: 35
canarygrass; [9]
  Plant response rating, Canarygrass: 20
canarygrass; [8]
  Plant response rating, Canarygrass: 25
Downy bromegrass [1]; [4]
  Plant response rating, Bromegrass, Downy: 45
Downy bromegrass [1]; [7]
  Plant response rating, Bromegrass, Downy: 35
Downy bromegrass [1]; [9]
  Plant response rating, Bromegrass, Downy: 20
Downy bromegrass [1]; [8]
  Plant response rating, Bromegrass, Downy: 30
Green foxtail; [4]
  Plant response rating, Foxtail, Green: 45
Green foxtail; [7]
  Plant response rating, Foxtail, Green: 35
Green foxtail; [8]
  Plant response rating, Foxtail, Green: 35
Wild oat; [4]
  Plant response rating, Oat, Wild: 95
Wild oat; [7]
  Plant response rating, Oat, Wild: 75
Wild oat; [8]
  Plant response rating, Oat, Wild: 55

## CCNC(=O)c1ccc(F)c(NC(=O)c2c3c(nn2CC)C(C)(C)CC3)c1 [Compound 353]
Winter barley; Postemergence, scale 0 to 100
  Barley, Winter plant response rating: 25
Winter barley; [3]
  Plant response rating, Barley, Winter: 15
Winter barley; [4]
  Plant response rating, Barley, Winter: 20
Winter barley; [5]
  Plant response rating, Barley, Winter: 5
canarygrass; [4]
  Plant response rating, Canarygrass: 10
canarygrass; [10]
  Plant response rating, Canarygrass: 20
canarygrass; [7]
  Plant response rating, Canarygrass: 10
canarygrass; [8]
  Plant response rating, Canarygrass: 0
Downy bromegrass [1]; [4]
  Plant response rating, Bromegrass, Downy: 30
Downy bromegrass [1]; [10]
  Plant response rating, Bromegrass, Downy: 35
Downy bromegrass [1]; [7]
  Plant response rating, Bromegrass, Downy: 20
Downy bromegrass [1]; [8]
  Plant response rating, Bromegrass, Downy: 10
Green foxtail; [4]
  Plant response rating, Foxtail, Green: 20
Green foxtail; [10]
  Plant response rating, Foxtail, Green: 30
Green foxtail; [7]
  Plant response rating, Foxtail, Green: 20
Green foxtail; [8]
  Plant response rating, Foxtail, Green: 15
Wild oat; [4]
  Plant response rating, Oat, Wild: 40
Wild oat; [10]
  Plant response rating, Oat, Wild: 60
Wild oat; [7]
  Plant response rating, Oat, Wild: 30
Wild oat; [8]
  Plant response rating, Oat, Wild: 10

## CCOC(=O)c1cccc(NC(=O)c2nn(C(C)(C)CC)nc2CC)c1 [Compound 375]
Winter barley; [3]
  Plant response rating, Barley, Winter: 30
Winter barley; [4]
  Plant response rating, Barley, Winter: 40
Winter barley; [9]
  Plant response rating, Barley, Winter: 10
Winter barley; [5]
  Plant response rating, Barley, Winter: 20
canarygrass; [4]
  Plant response rating, Canarygrass: 35
canarygrass; [7]
  Plant response rating, Canarygrass: 35
canarygrass; [9]
  Plant response rating, Canarygrass: 30
canarygrass; [8]
  Plant response rating, Canarygrass: 30
Downy bromegrass [1]; [4]
  Plant response rating, Bromegrass, Downy: 60
Downy bromegrass [1]; [7]
  Plant response rating, Bromegrass, Downy: 60
Downy bromegrass [1]; [9]
  Plant response rating, Bromegrass, Downy: 40
Downy bromegrass [1]; [8]
  Plant response rating, Bromegrass, Downy: 60
Green foxtail; [4]
  Plant response rating, Foxtail, Green: 65
Green foxtail; [7]
  Plant response rating, Foxtail, Green: 65
Green foxtail; [8]
  Plant response rating, Foxtail, Green: 50
Wild oat; [7]
  Plant response rating, Oat, Wild: 55
Wild oat; [8]
  Plant response rating, Oat, Wild: 45

## CCc1nn(C(C)(C)C)nc1C(=O)Nc1cccc(C(=O)N(C)CC)c1 [Compound 384]
Winter barley; [3]
  Plant response rating, Barley, Winter: 35
Winter barley; [4]
  Plant response rating, Barley, Winter: 35
Winter barley; [9]
  Plant response rating, Barley, Winter: 0
Winter barley; [5]
  Plant response rating, Barley, Winter: 10
canarygrass; [4]
  Plant response rating, Canarygrass: 40
canarygrass; [7]
  Plant response rating, Canarygrass: 35
canarygrass; [9]
  Plant response rating, Canarygrass: 20
canarygrass; [8]
  Plant response rating, Canarygrass: 30
Downy bromegrass [1]; [4]
  Plant response rating, Bromegrass, Downy: 55
Downy bromegrass [1]; [7]
  Plant response rating, Bromegrass, Downy: 45
Downy bromegrass [1]; [9]
  Plant response rating, Bromegrass, Downy: 30
Downy bromegrass [1]; [8]
  Plant response rating, Bromegrass, Downy: 40
Green foxtail; [4]
  Plant response rating, Foxtail, Green: 65
Green foxtail; [7]
  Plant response rating, Foxtail, Green: 60
Green foxtail; [8]
  Plant response rating, Foxtail, Green: 60
Wild oat; [7]
  Plant response rating, Oat, Wild: 45
Wild oat; [8]
  Plant response rating, Oat, Wild: 35
Large crabgrass; 62 g ai/ha, scale 0 to 100
  Plant response rating, Crabgrass, Large: 90
Large crabgrass; 125 g ai/ha, scale 0 to 100
  Plant response rating, Crabgrass, Large: 100
Large crabgrass; [11]
  Plant response rating, Crabgrass, Large: 100
Large crabgrass; [12]
  Plant response rating, Crabgrass, Large: 100
goosegrass; 62 g ai/ha, scale 0 to 100
  Plant response rating, Goosegrass: 60
goosegrass; 125 g ai/ha, scale 0 to 100
  Plant response rating, Goosegrass: 80
goosegrass; [11]
  Plant response rating, Goosegrass: 85
goosegrass; [12]
  Plant response rating, Goosegrass: 95
Pitted morningglory; 62 g ai/ha, scale 0 to 100
  Plant response rating, Morningglory: 10
Pitted morningglory; 125 g ai/ha, scale 0 to 100
  Plant response rating, Morningglory: 60
Pitted morningglory; [11]
  Plant response rating, Morningglory: 80
Pitted morningglory; [12]
  Plant response rating, Morningglory: 90
dallisgrass; 62 g ai/ha, scale 0 to 100
  Plant response rating, Dallisgrass: 10
dallisgrass; 125 g ai/ha, scale 0 to 100
  Plant response rating, Dallisgrass: 70
dallisgrass; [11]
  Plant response rating, Dallisgrass: 75
dallisgrass; [12]
  Plant response rating, Dallisgrass: 90
Prickly sida; 62 g ai/ha, scale 0 to 100
  Plant response rating, Prickly Sida: 60
Prickly sida; [11]
  Plant response rating, Prickly Sida: 60
Prickly sida; [12]
  Plant response rating, Prickly Sida: 95
Annual bluegrass; 62 g ai/ha, scale 0 to 100
  Plant response rating, Bluegrass: 50
Annual bluegrass; 125 g ai/ha, scale 0 to 100
  Plant response rating, Bluegrass: 75
Annual bluegrass; [11]
  Plant response rating, Bluegrass: 80
Annual bluegrass; [12]
  Plant response rating, Bluegrass: 95
Downy bromegrass [2]; 62 g ai/ha, scale 0 to 100
  Plant response rating, Bromegrass, Downy: 20
Downy bromegrass [2]; 125 g ai/ha, scale 0 to 100
  Plant response rating, Bromegrass, Downy: 40
Downy bromegrass [2]; [11]
  Plant response rating, Bromegrass, Downy: 40
Downy bromegrass [2]; [12]
  Plant response rating, Bromegrass, Downy: 90
itchgrass; 62 g ai/ha, scale 0 to 100
  Plant response rating, Itchgrass: 40
itchgrass; 125 g ai/ha, scale 0 to 100
  Plant response rating, Itchgrass: 60
itchgrass; [11]
  Plant response rating, Itchgrass: 70
itchgrass; [12]
  Plant response rating, Itchgrass: 85
Common mallow; 62 g ai/ha, scale 0 to 100
  Plant response rating, Mallow: 50
Common mallow; 125 g ai/ha, scale 0 to 100
  Plant response rating, Mallow: 70
Common mallow; [11]
  Plant response rating, Mallow: 70
Common mallow; [12]
  Plant response rating, Mallow: 95

## C=CCNC(=O)c1cccc(NC(=O)c2nn(C(C)(C)C)nc2CC)c1 [Compound 414]
Winter barley; Postemergence, scale 0 to 100
  Barley, Winter plant response rating: 45
Winter barley; [3]
  Plant response rating, Barley, Winter: 30
Winter barley; [4]
  Plant response rating, Barley, Winter: 45
Winter barley; [5]
  Plant response rating, Barley, Winter: 10
canarygrass; [4]
  Plant response rating, Canarygrass: 50
canarygrass; [10]
  Plant response rating, Canarygrass: 60
canarygrass; [7]
  Plant response rating, Canarygrass: 45
canarygrass; [8]
  Plant response rating, Canarygrass: 45
Downy bromegrass [1]; [4]
  Plant response rating, Bromegrass, Downy: 55
Downy bromegrass [1]; [10]
  Plant response rating, Bromegrass, Downy: 60
Downy bromegrass [1]; [7]
  Plant response rating, Bromegrass, Downy: 45
Downy bromegrass [1]; [8]
  Plant response rating, Bromegrass, Downy: 40
Green foxtail; [4]
  Plant response rating, Foxtail, Green: 65
Green foxtail; [10]
  Plant response rating, Foxtail, Green: 65
Green foxtail; [7]
  Plant response rating, Foxtail, Green: 60
Green foxtail; [8]
  Plant response rating, Foxtail, Green: 60
Wild oat; [10]
  Plant response rating, Oat, Wild: 55
Wild oat; [7]
  Plant response rating, Oat, Wild: 45
Wild oat; [8]
  Plant response rating, Oat, Wild: 35
